According to ChEMBL document CHEMBL1158949, “Plant metabolites. New compounds and anti-inflammatory activity of Uncaria tomentosa” (1991):
Activity calls are given as the source filed them. The calls are words filed in the database; no cut-off is given here.

Assays:
Rattus norvegicus [1] = test: Inhibition of carrageenan-induced edema in Wistar rat paw at 0.04 mg/kg to 0.51 mg/kg, po; type: functional, organism-based
Rattus norvegicus [2] = test: Inhibition of carrageenan-induced edema in Wistar rat paw at 20 mg/kg, po after 3 hrs; type: functional; parameters: scale not given: the % may be the effect or the level left
Rattus norvegicus [3] = test: Inhibition of carrageenan-induced edema in po dosed Wistar rat paw; type: functional
Rattus norvegicus [4] = test: Inhibition of carrageenan-induced edema in Wistar rat paw at 5 mg/kg, po; type: functional, organism-based; parameters: dose 5 mg/kg

| Compound | Activity (Rattus norvegicus [1]) | also measured |
| --- | --- | --- |
| C[C@H]1[C@H](C)CC[C@]2(C(=O)O[C@@H]3O[C@H](CO)[C@@H](O)[C@H](O)[C@H]3O)CC[C@]3(C(=O)O)C(=CC[C@@H]4[C@@]5(C)CC[C@H](O[C@@H]6O[C@H](C)[C@H](O)[C@H](O[C@@H]7O[C@H](CO)[C@@H](O)[C@H](O)[C@H]7O)[C@H]6O)C(C)(C)[C@@H]5CC[C@]43C)[C@H]12 | inactive | – |
| C[C@H]1[C@H](C)CC[C@]2(C(=O)O)CC[C@]3(C(=O)O[C@@H]4O[C@H](CO)[C@@H](O)[C@H](O)[C@H]4O)C(=CC[C@@H]4[C@@]5(C)CC[C@H](O[C@@H]6O[C@H](C)[C@@H](O)[C@H](O)[C@H]6O)C(C)(C)[C@@H]5CC[C@]43C)[C@H]12 | inactive | Activity (Rattus norvegicus [2]): 33% |
| C[C@H]1[C@H](C)CC[C@]2(C(=O)O)CC[C@]3(C(=O)O[C@@H]4O[C@H](CO)[C@@H](O)[C@H](O)[C@H]4O)C(=CC[C@@H]4[C@@]5(C)CC[C@H](O[C@@H]6O[C@H](C)[C@H](O)[C@H](O[C@@H]7O[C@H](CO)[C@@H](O)[C@H](O)[C@H]7O)[C@H]6O)C(C)(C)[C@@H]5CC[C@]43C)[C@H]12 | inactive | – |
| C[C@@H]1CC[C@]2(C(=O)O)CC[C@]3(C)C(=CC[C@@H]4[C@@]5(C)CC[C@H](O)C(C)(C)[C@@H]5[C@H](O)C[C@]43C)[C@@H]2[C@]1(C)O | inactive | Activity (Rattus norvegicus [2]): inactive |
| COc1ccc2c(c1)c(CC(=O)O)c(C)n2C(=O)c1ccc(Cl)cc1 [INDOMETHACIN] | – | ED50 (Rattus norvegicus [3]): 0.014 mmol; Activity (Rattus norvegicus [4]): Active |
| C[C@H]1[C@H](C)CC[C@]2(C(=O)O)CC[C@]3(C)C(=CC[C@@H]4[C@@]5(C)CC[C@H](O)C(C)(C)[C@@H]5CC[C@]43C)[C@H]12 | inactive | – |
| C[C@H]1[C@H](C)CC[C@]2(C(=O)O[C@@H]3O[C@H](CO)[C@@H](O)[C@H](O)[C@H]3O)CC[C@]3(C(=O)O)C(=CC[C@@H]4[C@@]5(C)CC[C@H](O[C@@H]6O[C@H](C)[C@H](O)[C@H](O)[C@H]6O)C(C)(C)[C@@H]5CC[C@]43C)[C@H]12 | inactive | – |
| C[C@H]1[C@H](C)CC[C@]2(C(=O)O[C@@H]3O[C@H](CO)[C@@H](O)[C@H](O)[C@H]3O)CC[C@]3(C(=O)O)C(=CC[C@@H]4[C@@]5(C)CC[C@H](O[C@@H]6O[C@H](C)[C@@H](O)[C@H](O)[C@H]6O)C(C)(C)[C@@H]5CC[C@]43C)[C@H]12 | inactive | – |
| C[C@H]1[C@H](C)CC[C@]2(C(=O)O)CC[C@]3(C(=O)O[C@@H]4O[C@H](CO)[C@@H](O)[C@H](O)[C@H]4O)C(=CC[C@@H]4[C@@]5(C)CC[C@H](O[C@@H]6O[C@H](C)[C@H](O)[C@H](O)[C@H]6O)C(C)(C)[C@@H]5CC[C@]43C)[C@H]12 | inactive | – |
| CC1(C)CC[C@]2(C(=O)O)CC[C@]3(C)C(=CC[C@@H]4[C@@]5(C)CC[C@H](O)C(C)(C)[C@@H]5CC[C@]43C)[C@@H]2C1 | inactive | Activity (Rattus norvegicus [2]): inactive |
| COC(=O)[C@]12CC[C@@H](C)[C@@](C)(O)[C@H]1C1=CC[C@@H]3[C@@]4(C)CC[C@H](O)[C@@](C)(C(=O)OC)[C@@H]4[C@H](O)C[C@@]3(C)[C@]1(C)CC2 | inactive | – |
| C=C[C@H]1[C@H](O[C@@H]2O[C@H](CO)[C@@H](O)[C@H](O)[C@H]2O)OC=C(C(=O)OC)[C@H]1C[C@@H]1N[C@@H](C(=O)O)Cc2c1[nH]c1ccccc21 | inactive | – |
| C[C@H]1[C@H](C)CC[C@]2(C(=O)O)CC[C@]3(C(=O)O)C(=CC[C@@H]4[C@@]5(C)CC[C@H](O[C@@H]6O[C@H](C)[C@H](O)[C@H](O[C@@H]7O[C@H](CO)[C@@H](O)[C@H](O)[C@H]7O)[C@H]6O)C(C)(C)[C@@H]5CC[C@]43C)[C@H]12 | inactive | – |
